Test results reported in patent US8247403B2, “Benzoxazepine derivatives and use thereof” (Takeda Pharmaceutical Company Limited, priority 2007, dated 2012).
Counter-ions that a name gives are not always drawn.

Key:
[1] = target: serotonin 5-HT2C receptor (Homo sapiens, UniProt P28335, I156V/I160V/N158S); test: cell-based; settings: CHO, read-out: ratio to maximum response by 5-HT (1 μM)
[2] = system: female spinal cord transected rat whose hypogastric nerve and pudendal nerves were bilaterally cut; test: Urethral closure response induced by increased bladder pressure in rat with hypogastric and pudendal nerves cut; assay type: in vivo
Experimental: SD female rats (body weight 230-274 g) were anesthetized with urethane (Wako Pure Chemical Industries, Ltd.), and the spinal cord was cut at T8-9 level to eliminate the micturition reflex. During the operation, halothane (Takeda Pharmaceutical Company Limited) anesthesia was added as necessary. The abdomen was opened, the bladder neck was ligated with a suture thread, and then, the hypogastric nerve and the pudendal nerves were bilaterally cut. A catheter (PE-90, Clay Adams) was inserted in the bladder, and the other end of the bladder catheter was connected to the pressure transducer and an aquatic reservoir (60 ml syringe) of saline via a three-way cock. A microchip transducer catheter (SPR-524, Millar Instruments Inc.) was inserted from the urethral orifice toward the bladder, and the transducer part was adjusted to be in the urethra at 10.0-15.0 mm from the urethral orifice using the scale on the catheter surface. The topical changes in the urethral pressure (hereinafter to be referred to as urethral pressure for convenience) measured by the microchip transducer were input into a computer via an amplifier (BP Amp; ADINSTRUMENTS) and a data analyzer (Powerlab 4/25; ADINSTRUMENTS; sampled at 1000 Hz), and recorded on a hard disk. […] The response of the urethra induced by the increased bladder pressure was repeatedly measured, and the average value of the last two measures was taken as the value before drug administration. The evaluation item was reflective urethral closure response, and the average urethral pressure for 30 seconds before increasing the bladder pressure and 30 seconds when the bladder pressure was raised to 50 cm was calculated. Then, the value before bladder pressure increase was subtracted from the value during bladder pressure increase and taken as the urethral closure response. […] The drug was dissolved in saline with dimethylformamide, and intravenously administered at 1 ml/kg.

serotonin 5-HT2C receptor, sequence (P28335 33-458 I156V/N158S/I160V limits assumed): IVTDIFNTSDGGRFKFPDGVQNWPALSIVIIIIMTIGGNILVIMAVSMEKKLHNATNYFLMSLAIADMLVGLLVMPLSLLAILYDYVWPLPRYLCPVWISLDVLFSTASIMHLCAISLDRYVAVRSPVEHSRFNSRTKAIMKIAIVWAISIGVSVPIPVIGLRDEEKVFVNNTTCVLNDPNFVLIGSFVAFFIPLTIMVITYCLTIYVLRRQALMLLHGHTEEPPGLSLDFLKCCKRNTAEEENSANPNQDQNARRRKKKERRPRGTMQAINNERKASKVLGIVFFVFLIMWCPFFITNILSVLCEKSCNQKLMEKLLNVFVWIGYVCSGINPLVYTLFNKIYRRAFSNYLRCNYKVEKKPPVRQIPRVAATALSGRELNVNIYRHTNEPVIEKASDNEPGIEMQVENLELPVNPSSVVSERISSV

| SMILES | activation at 1 µM [1] [%] | other results |
| --- | --- | --- |
| c1cc2c(cc1N1CCOCC1)OCCNC2 [Example 1, 8-(morpholin-4-yl)-2,3,4,5-tetrahydro-1,4-benzoxazepine hydrochloride] | 95.4 | – |
| c1cc2c(cc1N1CCCC1)OCCNC2 [Example 2, 8-(pyrrolidin-1-yl)-2,3,4,5-tetrahydro-1,4-benzoxazepine dihydrochloride] | 93.1 | – |
| c1cc2c(cc1N1CCCCC1)OCCNC2 [Example 3, 8-(piperidin-1-yl)-2,3,4,5-tetrahydro-1,4-benzoxazepine dihydrochloride] | 94.3 | – |
| CC(C)N(C)c1ccc2c(c1)OCCNC2 [Example 4, N-isopropyl-N-methyl-2,3,4,5-tetrahydro-1,4-benzoxazepine-8-amine dihydrochloride] | 100 | – |
| CCN(CC)c1ccc2c(c1)OCCNC2 [Example 5, N,N-diethyl-2,3,4,5-tetrahydro-1,4-benzoxazepine-8-amine dihydrochloride] | 91.9 | – |
| CCN(C)c1ccc2c(c1)OCCNC2 [Example 6, N-ethyl-N-methyl-2,3,4,5-tetrahydro-1,4-benzoxazepine-8-amine dihydrochloride] | 102 | – |
| c1cc2c(c(N3CCCC3)c1)OCCNC2 [Example 7, 9-(pyrrolidin-1-yl)-2,3,4,5-tetrahydro-1,4-benzoxazepine dihydrochloride] | 107 | – |
| c1ccc(-c2cccc3c2OCCNC3)cc1 [Example 9, 9-phenyl-2,3,4,5-tetrahydro-1,4-benzoxazepine hydrochloride] | 93.1 | – |
| Clc1ccccc1-c1cccc2c1OCCNC2 [Example 10, 9-(2-chlorophenyl)-2,3,4,5-tetrahydro-1,4-benzoxazepine hydrochloride] | 94 | – |
| Cc1ccccc1-c1cccc2c1OCCNC2 [Example 11, 9-(2-methylphenyl)-2,3,4,5-tetrahydro-1,4-benzoxazepine hydrochloride] | 92.7 | – |
| FC(F)(F)c1ccccc1-c1cccc2c1OCCNC2 [Example 12, 9-[2-(trifluoromethyl)phenyl]-2,3,4,5-tetrahydro-1,4-benzoxazepine hydrochloride] | 93.6 | – |
| c1cc2c(c(-c3ccoc3)c1)OCCNC2 [Example 15, 9-(3-furyl)-2,3,4,5-tetrahydro-1,4-benzoxazepine hydrochloride] | 96.2 | – |
| c1cc2c(c(-c3ccsc3)c1)OCCNC2 [Example 16, 9-(3-thienyl)-2,3,4,5-tetrahydro-1,4-benzoxazepine hydrochloride] | 99.1 | – |
| C1=C(c2cccc3c2OCCNC3)CCC1 [Example 26, 9-(cyclopenta-1-en-1-yl)-2,3,4,5-tetrahydro-1,4-benzoxazepine hydrochloride] | 101 | – |
| c1cc2c(c(C3CCOC3)c1)OCCNC2 (centres unmarked) [Example 55, 9-(tetrahydrofuran-3-yl)-2,3,4,5-tetrahydro-1,4-benzoxazepine hydrochloride] | 103 | – |
| FC1(F)CCN(c2cccc3c2OCCNC3)C1 [Example 58, 9-(3,3-difluoropyrrolidin-1-yl)-2,3,4,5-tetrahydro-1,4-benzoxazepine] | 95.5 | – |
| CC(c1cccc2c1OCCNC2)C(F)(F)F (centres unmarked) [Example 59, 9-(2,2,2-trifluoro-1-methylethyl)-2,3,4,5-tetrahydro-1,4-benzoxazepine hydrochloride] | 95.2 | – |
| Cl.c1cc2c(c(C3CCC3)c1)OCCNC2 [Example 63, 9-cyclobutyl-2,3,4,5-tetrahydro-1,4-benzoxazepine hydrochloride] | 97.6 | Urethral closure response, after drug administration ([2]; 3 mg/kg i.v., 10 min after administration, n=6, bladder pressure raised to 50 cm H2O): 6.2 ± 0.9 cm H2O; Urethral closure response, increase ([2]; 3 mg/kg i.v., difference between after and before drug administration, P < 0.001 vs vehicle): 4.4 ± 0.7 cm H2O; Urethral closure response, before drug administration ([2]; baseline of the 3 mg/kg i.v. group, n=6, bladder pressure raised to 50 cm H2O): 1.8 ± 0.5 cm H2O; effect on urethral closure response induced by increased bladder pressure (in words) ([2]; intravenous administration, bladder pressure 0 to 50 cm H2O): significantly increased the urethral closure response |
| c1cc2c(c(C3CC3)c1)OCCNC2 [Example 64, 9-cyclopropyl-2,3,4,5-tetrahydro-1,4-benzoxazepine hydrochloride] | 94.6 | – |
